Data reported in patent US20100267803A1, “Regulators Of Fat Metabolism As Anti-Cancer Targets” (The Research Foundation of State University Of New York, priority 2008, published 2010).

Tests used:
NR1D1 mRNA = assay: qRT-PCR of NR1D1 mRNA in BT474 cells; assay type: cell-based, human; conditions: shRNA 48 h, qRT-PCR
Protocol: (§1) FIG. 2 NR1D1 and PBP are necessary for survival of ERBB2-positive cells. (a) PBP and NR1D1 mRNA levels of BT474 cells transfected with luciferase (control), PBP or NR1D1 shRNAs for 48 h, analyzed by qRT-PCRs. (Error bars are s.d from 3 experiments; ***P<0.003, **P=0.01, *P=0.02). (b) BMAL1 luciferase reporter activity of BT474 cells transfected with either empty vector (control), or NR1D1 shRNA for 48 h.
FIG. 3 PPAR. inhibition impacts NR1D1 expression and ERBB2-positive cells viability. (a) Cell counts of BT474, MDA-MB-361, MCF-7 and HMEC cells treated with vehicle, 10 and 20 μM of the PPAR. antagonist GW9662 for 72 hrs. Results represented as % of control (vehicle). (Error bars are s.d from 3 individual experiments; *P>0.2, **P<0.05, ***P<0.002). (b) BT474 cells treated with vehicle or 20 μM of GW9662 for 48 h were immuno-stained for cleaved Caspase-3. (c) Quantification of Caspase-3 signal. (Error bars are s.d from 3 individual experiments; ***P=0.002). (d) aP2 and NR1D1 mRNA levels of BT474 cells treated with vehicle (control) and 20 μM of GW9662 for 48 h, analyzed by qRT-PCRs. […]

NR1D1 = assay: Immunoblot of NR1D1 protein after shRNA; assay type: cell-based, human; conditions: after shRNA transfection
Description: (§2) Cell viability—apoptosis assays. […] At least 30 fields were imaged per single experiment. […] Immunoblotting. […] PCR reaction was run using standard conditions.

PBP = conditions: after shRNA transfection
Protocol: Immunoblotting. Cell extracts for western blots were obtained using RIPA buffer (1% Triton X-100, 40mM NaCl, 0.1% SDS, 10 mM Tris pH 8.0) supplemented with complete cocktail of proteinase inhibitors (Roche). For detection of phoshporylated epitopes, the PhosSTOP cocktail of phospatase inhibitors (Roche) was added in the lysis buffer. Protein extracts were separated by SDS-PAGE, transferred to Immobilon-P (Millipore) membranes and immunoblotted according to standard protocols. Blots were imaged using a FluorChem HD (Alpha Innotech) imaging system and images were analyzed by densitometry using the FluorChem 9900 software (Alpha Innotech). Antibodies used: anti-flag (M2; Stratagene), PBP (TRAP220, C-19; Santa Cruz), GAPDH (V-18; Santa Cruz Biotechnology), ERBB2 (clone 42; BD), phospho-ERBB2 (Tyr877, #2241; Cell Signaling Technology), phospho-ERBB2 (Tyr1221/1222, 6B12; Cell Signaling Technology), anti-rabbit IgG-HRP (sc-2204, Santa Cruz Biotechnology), anti-goat IgG-HRP (sc-2768, Santa Cruz Biotechnology), anti-mouse IgG-HRP (#31430; Pierce Biotechnology) qRT-PCR.

PBP mRNA = assay: qRT-PCR of PBP mRNA in BT474 cells; assay type: cell-based, human; conditions: shRNA 48 h
Protocol: as §1, §2

| Substance | decrease in mRNA levels of target (NR1D1) (NR1D1 mRNA) [%] | NR1D1 protein levels (NR1D1) | PBP protein levels (PBP) | decrease in mRNA levels of target (PBP) (PBP mRNA) [%] |
| --- | --- | --- | --- | --- |
| NR1D1 shRNA: shRNA, mature sequence GGCATGGTGTTACTGTGTA (shRNA) | > 60 | decreased protein levels | – | – |
| PBP shRNA: shRNA, mature sequence CCGAGTTCCTCTTATCCTA (shRNA) | – | – | decreased protein levels | > 60 |
